# Patent US20130317056A1, “NEURONAL NICOTINIC AGONISTS AND METHODS OF CORRELATING COMT SNPS” (ABBVIE INC., priority 2012, published 2013)
# What was measured:
# Type in all cases: in vivo, human
# [1] = system: clinically stable subjects with schizophrenia; experiment: UCSD Performance-Based Skills Assessment-2 (UPSA-2), Clinical Study A
# Description: (§1) A Phase 2a proof-of-concept (POC) study in clinically stable subjects with schizophrenia who were clinically stable and received stable doses of atypical antipsychotic therapy. The study was a Phase 2, multi-center, randomized, double-blind, placebo-controlled, parallel group study designed to evaluate the safety and efficacy of doses of (4s)-4-(5-phenyl-1,3,4-thiadiazol-2-yloxy)-1-azatricyclo[3.3.1.1^3,7]decane (Compound A) in clinically stable male and female subjects (ages 20 to 55, inclusive) with a Diagnostic and Statistical Manual of Mental Disorders—Fourth Edition, Text Revision (DSM-IV-TR) diagnosis of schizophrenia. Psychiatric diagnoses were confirmed using the Mini-International Neuropsychiatric Interview (MINI) version 6.0.0. The criteria for clinical stability was determined by a combination of retrospective data (over the 4 months prior to the start of Screening, which will be supported by clinical records, patient, identified responsible contact person, and physician interviews), and prospective data assessed during the Prospective Stabilization Period of 28 to 42 days duration.
# The study was a Phase 2, multi-center, randomized, double-blind, placebo-controlled, parallel group study designed to evaluate the safety and efficacy of doses of (4s)-4-(5-phenyl-1,3,4-thiadiazol-2-yloxy)-1-azatricyclo[3.3.1.1^3,7]decane, which is also recognized as Compound A, in treating cognitive deficits in subjects with schizophrenia who were clinically stable and receiving one or two atypical antipsychotic medications. Study drug was administered orally.
# (§2) The study consisted of a screening period of at least 28 and up to 42 days, a 84-day outpatient treatment period, a 14-day post-treatment period, and a post-treatment follow-up period. The screening period consisted of three visits: Screening Visit 1, Screening Visit 2, and Day −1. Upon completion of Day −1 procedures, eligible subjects were randomized through an Interactive Voice Response/Interactive Web-Based (IVR/IWB) system. Subjects were randomized in an equal ratio to one of three treatment groups (placebo, 10 mg Compound A, or 25 mg Compound A).
# The primary endpoint was the MCCB composite score, and the primary endpoint analysis was the change on the MCCB composite score from baseline to endpoint versus placebo. Other secondary measures included the MCCB domains, the NSA-16, the CANTAB cognition battery (measured at different time points from the MCCB), and the UPSA-2. The Positive and Negative Syndrome Scale (PANSS) was included to document stability in schizophrenia symptomatology.
# The UCSD Performance-Based Skills Assessment-2 (UPSA-2) is a role-play test designed for subjects with schizophrenia to evaluate cognitive functional capacity in six selected domains of basic living skills. These areas include Organization/Planning, Financial Skills, Communication, Transportation, Household Management, and Medication Management. […] Scores were obtained for each subtest, and the total score was the sum of these subtests. […] The UPSA-2 required an average of 30 minutes to administer. The UPSA-2 was administered in on Days 14, 28, 56, 84 and 98.
# [2] = system: subjects with schizophrenia who were not current smokers; experiment: MCCB composite score in non-smokers by COMT SNP, Clinical Study A; details: for MCCB composite score, change score: subjects who were not current smokers; for MCCB Change from Baseline to Final Mean(SD) / MCCB Between-group Difference (Pooled SD) / MCCB Effect Size (Raw mean): non-smokers; for treatment effect on MCCB: nonsmokers
# Procedure: Analysis of the data by cigarette smoking status (current smoker or current nonsmoker) indicated a significant […] interaction (p=0.015).
# A blood sample for genotyping was collected from each subject who consented. Genomic DNA was isolated from whole blood using the FlexiGene DNA AGF3000 kit (Qiagen, Valencia, Calif.), on an AutogenFlex 3000 (AutoGen, Holliston, Mass.). Genotypes were determined using the Pyrosequencing detection method (USA—Qiagen, Inc., Valencia, Calif.). Individuals performing the genotyping were blinded to clinical trial data. The significance of the minor allele against the major allele is shown in column marked “Treatment genotype p-value” (Tables 6 and 7).
# A similar dose-response trend was observed across the four COMT SNPs in the population of nonsmokers as well (data not shown).
# [3] = system: clinically stable subjects with schizophrenia; experiment: Disposition of subjects and tolerability, Clinical Study A
# Description: as §1, §2
# Subjects completed 2 visits during the screening period. Study site personnel contacted each subject by telephone on Day 21, 35, and 70 of the 84-day treatment period to discuss study drug compliance, antipsychotic medication compliance, concomitant medication use, substance use, and any adverse events.
# A total of 207 subjects were randomized.
# [4] = RS4633 C/C (major allele), 25 mg vs placebo
# [5] = RS4633 T/T or C/T (minor allele), 10 mg vs placebo
# [6] = RS4633 T/T or C/T (minor allele), 25 mg vs placebo
# [7] = RS4680 A/A or G/A (minor allele), 10 mg vs placebo
# [8] = RS4680 A/A or G/A (minor allele), 25 mg vs placebo
# [9] = RS4680 G/G (major allele), 25 mg vs placebo
# [10] = RS4818 C/C (major allele), 25 mg vs placebo
# [11] = RS4818 G/C or G/G (minor allele), 10 mg vs placebo
# [12] = RS4818 G/C or G/G (minor allele), 25 mg vs placebo
# [13] = RS6269 A/A (major allele), 25 mg vs placebo
# [14] = RS6269 G/G or A/G (minor allele), 10 mg vs placebo
# [15] = RS6269 G/G or A/G (minor allele), 25 mg vs placebo
compound,measurement,setting,value
"c1ccc(-c2nnc(O[C@@H]3C4CC5C[C@H]3C[N@](C5)C4)s2)cc1 [Compound A, (4s)-4-(5-phenyl-1,3,4-thiadiazol-2-yloxy)-1-azatricyclo[3.3.1.1^3,7]decane]",UPSA-2 medication management subscale score,"[1]; 10 mg, P=0.094",statistically significant improvement or statistical trend for improvement
same,UPSA-2 household skills subscale score,"[1]; 10 mg, P=0.096",statistically significant improvement or statistical trend for improvement
same,UPSA-2 comprehension/planning subscale score,"[1]; 10 mg, P=0.102",statistically significant improvement or statistical trend for improvement
same,UPSA-2 comprehension/planning subscale score,"[1]; 25 mg, P=0.005",statistically significant improvement or statistical trend for improvement
same,"UPSA-2 composite score, significance versus placebo","[1]; either dose group (10 mg, 25 mg)",No significance
same,"MCCB composite score, change score","[2]; 10 mg, p=0.021",+2.1
same,"MCCB composite score, change score","[2]; 25 mg, p=0.001",+4.5
same,MCCB Change from Baseline to Final Mean(SD),"[2]; RS4633 C/C (major allele), 25 mg",7.4(6.1)
same,MCCB Between-group Difference (Pooled SD),[2]; [4],8.4(5.1)
same,MCCB Effect Size (Raw mean),[2]; [4],1.65
same,MCCB Change from Baseline to Final Mean(SD),"[2]; RS4633 T/T or C/T (minor allele), 10 mg",2.4(7.3)
same,MCCB Between-group Difference (Pooled SD),[2]; [5],2.7(6.1)
same,MCCB Effect Size (Raw mean),[2]; [5],0.44
same,MCCB Change from Baseline to Final Mean(SD),"[2]; RS4633 T/T or C/T (minor allele), 25 mg",2.4(5.4)
same,MCCB Between-group Difference (Pooled SD),[2]; [6],2.7(4.9)
same,MCCB Effect Size (Raw mean),[2]; [6],0.55
same,MCCB Change from Baseline to Final Mean(SD),"[2]; RS4680 A/A or G/A (minor allele), 10 mg",2.2(7.5)
same,MCCB Between-group Difference (Pooled SD),[2]; [7],2.4(6.4)
same,MCCB Effect Size (Raw mean),[2]; [7],0.38
same,MCCB Change from Baseline to Final Mean(SD),"[2]; RS4680 A/A or G/A (minor allele), 25 mg",2.4(5.4)
same,MCCB Between-group Difference (Pooled SD),[2]; [8],2.6(4.7)
same,MCCB Effect Size (Raw mean),[2]; [8],0.55
same,MCCB Change from Baseline to Final Mean(SD),"[2]; RS4680 G/G (major allele), 25 mg",7.4(6.1)
same,MCCB Between-group Difference (Pooled SD),[2]; [9],8.4(5.1)
same,MCCB Effect Size (Raw mean),[2]; [9],1.65
same,MCCB Change from Baseline to Final Mean(SD),"[2]; RS4818 C/C (major allele), 25 mg",1.3(6.7)
same,MCCB Between-group Difference (Pooled SD),[2]; [10],1.8(5.3)
same,MCCB Effect Size (Raw mean),[2]; [10],0.34
same,MCCB Change from Baseline to Final Mean(SD),"[2]; RS4818 G/C or G/G (minor allele), 10 mg",1.2(3.8)
same,MCCB Between-group Difference (Pooled SD),[2]; [11],1.8(3.9)
same,MCCB Effect Size (Raw mean),[2]; [11],0.46
same,MCCB Change from Baseline to Final Mean(SD),"[2]; RS4818 G/C or G/G (minor allele), 25 mg",5.8(5.3)
same,MCCB Between-group Difference (Pooled SD),[2]; [12],6.4(4.8)
same,MCCB Effect Size (Raw mean),[2]; [12],1.33
same,MCCB Change from Baseline to Final Mean(SD),"[2]; RS6269 A/A (major allele), 25 mg",1.9(6.3)
same,MCCB Between-group Difference (Pooled SD),[2]; [13],2.2(4.9)
same,MCCB Effect Size (Raw mean),[2]; [13],0.45
same,MCCB Change from Baseline to Final Mean(SD),"[2]; RS6269 G/G or A/G (minor allele), 10 mg",1.0(3.5)
same,MCCB Between-group Difference (Pooled SD),[2]; [14],1.9(3.9)
same,MCCB Effect Size (Raw mean),[2]; [14],0.49
same,MCCB Change from Baseline to Final Mean(SD),"[2]; RS6269 G/G or A/G (minor allele), 25 mg",5.9(5.6)
same,MCCB Between-group Difference (Pooled SD),[2]; [15],6.8(5.2)
same,MCCB Effect Size (Raw mean),[2]; [15],1.31
same,treatment effect on MCCB,[2]; minor allele of the four COMT SNPs,highly robust
same,treatment effect on MCCB,[2]; subjects containing the major allele,meaningful effect
same,Discontinuation: Adverse event,[3]; 10 mg QD,4 (5.8) n (%)
same,Discontinuation: Adverse event,[3]; 25 mg QD,3 (4.5) n (%)
same,Discontinuation: Adverse event,[3]; Compound A overall,7 (5.1) n (%)
same,tolerability,"[3]; subjects with schizophrenia, doses up to 25 mg QD, including 10 mg QD and 25 mg QD",well tolerated
